{"source": "patent US10854312B2", "about": "“Selective peptide antagonists” (BIONIZ, LLC, priority 2013, dated 2020)", "key": {"HAM/TSP T cells": {"test_system": "HAM/TSP T cells", "assay": "Spontaneous ex vivo proliferation of HAM/TSP patient lymphocytes (thymidine incorporation)", "assay_type": "cell-based, human", "settings": "5 days culture without exogenous cytokines; BNZ132-1 1 μM or 3 and 0.3 μM; mABs 5 mg/ml each", "procedure": "FIG. 7A, and FIG. 7B present effective inhibition of a combined function of target γc-cytokines by BNZ132-1. […] Human Peripheral T cells were prepared as described in the methodology section. Four hundred thousand cells (in 200 μl culture) were incubated with the cytokines and BNZ132-1 at the indicated concentrations for 24 h, and cellular proliferation was determined by the […] using the WST-1 reagent (Clontech). The Y-axis represents the OD450 values. The p values; 1 nM cytokine combination-No inhibition vs. anti-IL-2; 0.33, No inhibition vs. anti-IL-15; 0.13, No inhibition vs. anti IL-2+IL-15; 0.003. No inhibition vs. BNZ132-1; 0.021. 0.1 nM cytokine combination-No inhibition vs. anti-IL-2; 0.046, No inhibition vs. anti-IL-15; 0.057, No inhibition vs. anti IL-2+IL-15; 0.001, No inhibition vs. anti IL-2+15; 0.001, No inhibition vs.BNZ132-1; 0.001. The assay was performed in triplicate. […] Peripheral blood mononuclear cells were purified from the blood of a HAM-TSP patient and set up for a spontaneous proliferation assay as previously described36. The cellular proliferation was measured by the thymidine incorporation assay. The Y-axis represents the cpm values. Doses are on the X-axis; BNZ132-1, 3 and 0.3 μM. Antibodies against IL-2 or IL-15 (1 and 10 μg ml-1 of each, R & D Systems). […]"}, "human IL-2 signal": {"test_system": "human IL-2 signal", "assay": "Western blot of phosphorylation downstream of IL-2 in human PBMC / peripheral T cells", "assay_type": "cell-based", "procedure": "FIG. 9C presents IL-2 signal in human PBMC was blocked by BNZ132-1. Human PBMCs were prepared (Ficoll-paque), activated (by PHA) expanded (by IL-2), and purified by magnetic negative selection as described in the methodology section. After 24 h of IL-2 depletion, the PBMCs were stimulated by 1 nM IL-2 in the presence or absence of BNZ132-1 (0.5 or 0.1 μM) for 20 min before the cellular protein extraction. Phosphorylation of individual proteins was visualized by phosphor-specific antibodies (Cell Signaling), followed by ECL. Lanes: 1. no stimulation, 2. IL-2 stimulation, 3. IL-2+BNZ132-1 (high dose), 4. IL-2+BNZ132-1 (low dose). In all blots, anti-Vinculin antibody (Sigma) was used to validate nearly-equal protein loading."}, "γc-cytokines": {"test_system": "γc-cytokines", "assay": "Target cytokine spectrum within the γc-family", "assay_type": "cell-based"}}, "note": "Entries after “also recorded” stand apart in the source; their conditions may differ. No end group written: not given here.", "data": [{"sequence": "IKEFLQRFIHIVQSIINTS [BNZ132-1]", "values": [{"measurement": "inhibition of spontaneous ex vivo proliferation of HAM/TSP T cells", "setting": "HAM/TSP T cells", "value": "as effective inhibition as combined anti-IL-2 and anti-IL-15 mABs; also recorded: Efficient inhibition"}, {"measurement": "inhibition of IL-2 signal (phosphorylation)", "setting": "human IL-2 signal; human PBMC/peripheral T cells, 1 nM IL-2, BNZ132-1 0.5 or 0.1 μM, 20 min", "value": "comprehensively inhibited; also recorded: blocked"}, {"measurement": "differential inhibition of individual signaling pathways at suboptimal dose", "setting": "human IL-2 signal; low dose BNZ132-1 (0.1 μM), IL-2, human peripheral T cells", "value": "Akt and p38 are more sensitive than Jak3 and STAT5"}, {"measurement": "γc-cytokines not inhibited", "setting": "γc-cytokines; IL-4, IL-7 and IL-21", "value": "excludes IL-4,-7 or -21"}, {"measurement": "γc-cytokines inhibited", "setting": "γc-cytokines; summary statements, BNZ132-2 and -3 data not shown", "value": "specifically inhibits IL-2, IL-15 and IL-9; also recorded: restricted to IL-2, -15, and -9"}]}]}
